Tests used:
[1] = test system: recombinant NL4-3 virus (nef section replaced with Renilla luciferase gene) in MT-2 cells; test: HIV cell culture assay (antiviral activity, luciferase readout); format: cell-based; settings: Renilla, NL43, MT-2 cells infected for 4-5 days with recombinant NL4-3 Renilla luciferase virus
In short: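 Read-out: Renilla luciferase (live-cell substrate) in infected MT-2 cells after 4-5 d with serial compound dilutions. Virus from 293T transfection of the proviral clone, titered by luciferase in MT-2. EC50 via median effect equation fit.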

[2] = Compound cytotoxicity, XTT-based colorimetric assay; format: cell-based; settings: human; uninfected MT2 cells, day 4, XTT; read-out: CC50
In short: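 Uninfected MT2 cells were treated with compound under the same protocol as the antiviral assay. Viability was read on day 4 with an XTT colorimetric assay, from which CC50 values were derived.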

Cc1cc(C2CCC(F)(F)CC2)nc2nc([C@H](Cc3cc(F)cc(F)c3)NC(=O)Cn3nc(C(F)F)c4c3C(F)(F)[C@@H]3C[C@H]43)n(-c3ccc(Cl)c4c(NS(C)(=O)=O)nn(CCN5CCCC5)c34)c(=O)c12 (atropisomer, axis not shown; (P)) [Example 266, N-[(1S)-1-[(3P)-3-{4-chloro-3-methanesulfonamido-1-[2-(pyrrolidin-1-yl)ethyl]-1H-indazol-7-yl}-7-(4,4-difluorocyclohexyl)-5-methyl-4-oxo-3H,4H-pyrido[2,3-d]pyrimidin-2-yl]-2-(3,5-difluorophenyl)ethyl]-2-[(2S,4R)-9-(difluoromethyl)-5,5-difluoro-7,8-diazatricyclo[4.3.0.0^2,^4]nona-1(6),8-dien-7-yl]acetamide]
EC50 [1]: 0.034 nM | CC50 at 4 days [2]: > 50 nM

Cc1cc(C2CCC(F)(F)CC2)nc2nc([C@H](Cc3cc(F)cc(F)c3)NC(=O)Cn3nc(C(F)F)c4c3C(F)(F)[C@@H]3C[C@H]43)n(-c3ccc(Cl)c4c(NS(C)(=O)=O)nn(CCN5C[C@@H](F)[C@@H](F)C5)c34)c(=O)c12 (atropisomer, axis not shown; (P)) [Example 267, N-[(1S)-1-[(3P)-3-(4-chloro-1-{2-[(3R,4S)-3,4-difluoropyrrolidin-1-yl]ethyl}-3-methanesulfonamido-1H-indazol-7-yl)-7-(4,4-difluorocyclohexyl)-5-methyl-4-oxo-3H,4H-pyrido[2,3-d]pyrimidin-2-yl]-2-(3,5-difluorophenyl)ethyl]-2-[(2S,4R)-9-(difluoromethyl)-5,5-difluoro-7,8-diazatricyclo[4.3.0.0^2,^4]nona-1(6),8-dien-7-yl]acetamide]
EC50 [1]: 0.015 nM | CC50 at 4 days [2]: > 50 nM

Cc1cc(C2CCC(F)(F)CC2)nc2nc([C@H](Cc3cc(F)cc(F)c3)NC(=O)Cn3nc(C(F)F)c4c3C(F)(F)[C@@H]3C[C@H]43)n(-c3ccc(Cl)c4c(NS(C)(=O)=O)nn(CCN5CC(C(F)F)C5)c34)c(=O)c12 (atropisomer, axis not shown; (P)) [Example 268, N-[(1S)-1-[(3P)-3-(4-chloro-1-{2-[3-(difluoromethyl)azetidin-1-yl]ethyl}-3-methanesulfonamido-1H-indazol-7-yl)-7-(4,4-difluorocyclohexyl)-5-methyl-4-oxo-3H,4H-pyrido[2,3-d]pyrimidin-2-yl]-2-(3,5-difluorophenyl)ethyl]-2-[(2S,4R)-9-(difluoromethyl)-5,5-difluoro-7,8-diazatricyclo[4.3.0.0^2,^4]nona-1(6),8-dien-7-yl]acetamide]
EC50 [1]: 0.015 nM | CC50 at 4 days [2]: > 50 nM

Cc1cc(C2CCC(F)(F)CC2)nc2nc([C@H](Cc3cc(F)cc(F)c3)NC(=O)Cn3nc(C(F)F)c4c3C(F)(F)[C@@H]3C[C@H]43)n(-c3ccc(Cl)c4c(NS(C)(=O)=O)nn(CCN5CCCCC5)c34)c(=O)c12 (atropisomer, axis not shown; (P)) [Example 269, N-[(1S)-1-[(3P)-3-{4-chloro-3-methanesulfonamido-1-[2-(piperidin-1-yl)ethyl]-1H-indazol-7-yl}-7-(4,4-difluorocyclohexyl)-5-methyl-4-oxo-3H,4H-pyrido[2,3-d]pyrimidin-2-yl]-2-(3,5-difluorophenyl)ethyl]-2-[(2S,4R)-9-(difluoromethyl)-5,5-difluoro-7,8-diazatricyclo[4.3.0.0^2,^4]nona-1(6),8-dien-7-yl]acetamide]
EC50 [1]: 0.018 nM | CC50 at 4 days [2]: > 50 nM

Cc1cc(C2CCC(F)(F)CC2)nc2nc([C@H](Cc3cc(F)cc(F)c3)NC(=O)Cn3nc(C(F)F)c4c3C(F)(F)[C@@H]3C[C@H]43)n(-c3ccc(Cl)c4c(NS(C)(=O)=O)nn(CCN5CCC(F)CC5)c34)c(=O)c12 (atropisomer, axis not shown; (P)) [Example 270, N-[(1S)-1-[(3P)-3-{4-chloro-1-[2-(4-fluoropiperidin-1-yl)ethyl]-3-methanesulfonamido-1H-indazol-7-yl}-7-(4,4-difluorocyclohexyl)-5-methyl-4-oxo-3H,4H-pyrido[2,3-d]pyrimidin-2-yl]-2-(3,5-difluorophenyl)ethyl]-2-[(2S,4R)-9-(difluoromethyl)-5,5-difluoro-7,8-diazatricyclo[4.3.0.0^2,^4]nona-1(6),8-dien-7-yl]acetamide]
EC50 [1]: 0.011 nM | CC50 at 4 days [2]: > 50 nM

Cc1cc(C2CCC(F)(F)CC2)nc2nc([C@H](Cc3cc(F)cc(F)c3)NC(=O)Cn3nc(C(F)F)c4c3C(F)(F)[C@@H]3C[C@H]43)n(-c3ccc(Cl)c4c(NS(C)(=O)=O)nn(CCN5CCC(C)(F)CC5)c34)c(=O)c12 (atropisomer, axis not shown; (P)) [Example 271, N-[(1S)-1-[(3P)-3-{4-chloro-1-[2-(4-fluoro-4-methylpiperidin-1-yl)ethyl]-3-methanesulfonamido-1H-indazol-7-yl}-7-(4,4-difluorocyclohexyl)-5-methyl-4-oxo-3H,4H-pyrido[2,3-d]pyrimidin-2-yl]-2-(3,5-difluorophenyl)ethyl]-2-[(2S,4R)-9-(difluoromethyl)-5,5-difluoro-7,8-diazatricyclo[4.3.0.0^2,^4]nona-1(6),8-dien-7-yl]acetamide]
EC50 [1]: 0.015 nM | CC50 at 4 days [2]: > 50 nM

Cc1cc(C2CCC(F)(F)CC2)nc2nc([C@H](Cc3cc(F)cc(F)c3)NC(=O)Cn3nc(C4CC4)c4c3C[C@@H]3C[C@H]43)n(-c3ccc(Cl)c4c(NS(C)(=O)=O)nn(CCN5CCCC5)c34)c(=O)c12 (atropisomer, axis not shown; (P)) [Example 273, N-[(1S)-1-[(3P)-3-{4-chloro-3-methanesulfonamido-1-[2-(pyrrolidin-1-yl)ethyl]-1H-indazol-7-yl}-7-(4,4-difluorocyclohexyl)-5-methyl-4-oxo-3H,4H-pyrido[2,3-d]pyrimidin-2-yl]-2-(3,5-difluorophenyl)ethyl]-2-[(2S,4S)-9-cyclopropyl-7,8-diazatricyclo[4.3.0.0^2,^4]nona-1(6),8-dien-7-yl]acetamide]
EC50 [1]: 0.02 nM | CC50 at 4 days [2]: > 50 nM

Cc1cc(C2CCC(F)(F)CC2)nc2nc([C@H](Cc3cc(F)cc(F)c3)NC(=O)Cn3nc(C4CC4)c4c3C[C@@H]3C[C@H]43)n(-c3ccc(Cl)c4c(NS(C)(=O)=O)nn(CCN5CC(C(F)F)C5)c34)c(=O)c12 (atropisomer, axis not shown; (P)) [Example 275]
EC50 [1]: 0.012 nM | CC50 at 4 days [2]: > 50 nM

Cc1cc(C2CCC(F)(F)CC2)nc2nc([C@H](Cc3cc(F)cc(F)c3)NC(=O)Cn3nc(C4CC4)c4c3C[C@@H]3C[C@H]43)n(-c3ccc(Cl)c4c(NS(C)(=O)=O)nn(CCN5CCCCC5)c34)c(=O)c12 (atropisomer, axis not shown; (P)) [Example 276, N-[(1S)-1-[(3P)-3-{4-chloro-3-methanesulfonamido-1-[2-(piperidin-1-yl)ethyl]-1H-indazol-7-yl}-7-(4,4-difluorocyclohexyl)-5-methyl-4-oxo-3H,4H-pyrido[2,3-d]pyrimidin-2-yl]-2-(3,5-difluorophenyl)ethyl]-2-[(2S,4S)-9-cyclopropyl-7,8-diazatricyclo[4.3.0.0^2,^4]nona-1(6),8-dien-7-yl]acetamide]
EC50 [1]: 0.016 nM | CC50 at 4 days [2]: > 50 nM

From US12594276B2, “Inhibitors of human immunodeficiency virus replication” (ViiV Healthcare UK (No.5) Limited, priority 2024, dated 2026)
